tested on: NL-RLuc virus (recombinant NL4-3 proviral clone with Renilla Luciferase gene); experiment: Inhibition of HIV replication (NL-RLuc reporter virus in MT-2 cells); format: cell-based; details: Renilla, NL43, 120 h, read-out: Activity
Text: Inhibition of HIV replication: A recombinant NL-RLuc proviral clone was constructed in which a section of the nef gene from NL4-3 was replaced with the Renilla Luciferase gene. This virus is fully infectious and can undergo multiple cycles of replication in cell culture. In addition, the luciferous reporter provides a simple and easy method for quantitating the extent of virus growth and consequently, the antiviral activity of test compounds. The plasmid pNLRLuc contains the proviral NL-Rluc DNA cloned into pUC18 at the PvuII site. The NL-RLuc virus was prepared by transfection of 293T cells with the plasmid pNLRLuc. Transfections were performed using the LipofectAMINE PLUS kit from Invitrogen (Carlsbad, Calif.) according to the manufacturer and the virus generated was titered in MT-2 cells. For susceptibility analyses, the titrated virus was used to infect MT-2 cells in the presence of compound, and after 5 days of incubation, cells were processed and quantitated for virus growth by the amount of expressed luciferase. Assay media was RPMI 1640 supplemented with 10% heat inactivated fetal bovine serum (FBS), 100 units/ml penicillin G/100 units/ml streptomycin, 10 mM HEPES buffer pH 7.55 and 2 mM L-glutamine. The results from at least 2 experiments were used to calculate the EC50 values. Luciferase was quantitated using the Dual Luciferase kit from Promega (Madison, Wis.). Susceptibility of viruses to compounds was determined by incubation in the presence of serial dilutions of the compound. The 50% effective concentration (EC50) was calculated by using the exponential form of the median effect equation where (Fa)=1/[1+(ED50/drug conc.)^m] (Johnson V A, Byington R T. Infectivity Assay. In Techniques in HIV Research. ed. Aldovini A, Walker B D. 71-76. New York: Stockton Press.1990). Activity equal to A refers to a compound having an EC50≤100 nM, while B and C denote compounds having an EC50 between 100 nM and 1 uM (B) or >1 uM (C).

SMILES | EC50 [nM]
Cc1nc(C)c([C@H](OC(C)(C)C)C(=O)O)c(N2CCC(C)(C)CC2)c1-c1ccc(N(CCO)CCc2ccc(F)cc2)cc1 [Example 77, (S)-2-(tert-Butoxy)-2-(4-(4,4-dimethylpiperidin-1-yl)-5-(4-((4-fluorophenethyl)(2-hydroxyethyl)amino)phenyl)-2,6-dimethylpyridin-3-yl)acetic acid] | < 100
CCc1ccc(-c2ccc(-c3c(C)nc(C)c([C@H](OC(C)(C)C)C(=O)O)c3N3CCC(C)(C)CC3)cc2)cc1 [Example 12, (S)-2-(tert-Butoxy)-2-(4-(4,4-dimethylpiperidin-1-yl)-5-(4′-ethyl-[1,1′-biphenyl]-4-yl)-2,6-dimethylpyridin-3-yl)acetic acid] | 100 to 1000
Cc1nc(C)c([C@H](OC(C)(C)C)C(=O)O)c(N2CCC(C)(C)CC2)c1-c1ccc(-c2ncc(Cc3ccc(F)cc3)o2)cc1 [Example 4, (S)-2-(tert-Butoxy)-2-(4-(4,4-dimethylpiperidin-1-yl)-5-(4-(5-(4-fluorobenzyl)oxazol-2-yl)phenyl)-2,6-dimethylpyridin-3-yl)acetic acid] | < 100
Cc1nc(C)c([C@H](OC(C)(C)C)C(=O)O)c(N2CCC(C)(C)CC2)c1-c1ccc(C(N)=O)cc1 [Example 25, (S)-2-(tert-Butoxy)-2-(5-(4-carbamoylphenyl)-4-(4,4-dimethylpiperidin-1-yl)-2,6-dimethylpyridin-3-yl)acetic acid] | 100 to 1000
Cc1nc(C)c([C@H](OC(C)(C)C)C(=O)O)c(N2CCC(C)(C)CC2)c1-c1ccc(C2(C#N)CC2)cc1 [Example 27, (S)-2-(tert-Butoxy)-2-(5-(4-(1-cyanocyclopropyl)phenyl)-4-(4,4-dimethylpiperidin-1-yl)-2,6-dimethylpyridin-3-yl)acetic acid] | < 100
Cc1nc(C)c([C@H](OC(C)(C)C)C(=O)O)c(N2CCC(C)(C)CC2)c1-c1ccc(CO)cc1 [Example 82, (S)-2-(tert-Butoxy)-2-(4-(4,4-dimethylpiperidin-1-yl)-5-(4-(hydroxymethyl)phenyl)-2,6-dimethylpyridin-3-yl)acetic acid] | < 100
Cc1nc(C)c([C@H](OC(C)(C)C)C(=O)O)c(N2CCC(C)(C)CC2)c1-c1ccc(-c2ccccn2)cc1 [Example 13, (S)-2-(tert-butoxy)-2-(4-(4,4-dimethylpiperidin-1-yl)-2,6-dimethyl-5-(4-(pyridin-2-yl)phenyl)pyridin-3-yl)acetic acid] | < 100
CC(=O)N(CCc1ccc(F)cc1)c1ccc(-c2c(C)nc(C)c([C@H](OC(C)(C)C)C(=O)O)c2N2CCC(C)(C)CC2)cc1 [Example 75, (S)-2-(tert-Butoxy)-2-(4-(4,4-dimethylpiperidin-1-yl)-5-(4-(N-(4-fluorophenethyl)acetamido)phenyl)-2,6-dimethylpyridin-3-yl)acetic acid] | < 100
Cc1nc(C)c([C@H](OC(C)(C)C)C(=O)O)c(N2CCC(C)(C)CC2)c1-c1ccc(-c2ncc(Cc3ccc(F)cc3)s2)cc1 [Example 3, (S)-2-(tert-Butoxy)-2-(4-(4,4-dimethylpiperidin-1-yl)-5-(4-(5-(4-fluorobenzyl)thiazol-2-yl)phenyl)-2,6-dimethylpyridin-3-yl)acetic acid] | < 100
Cc1nc(C)c([C@H](OC(C)(C)C)C(=O)O)c(N2CCC(C)(C)CC2)c1-c1ccc(C=O)cc1 [Example 83, (S)-2-(tert-Butoxy)-2-(4-(4,4-dimethylpiperidin-1-yl)-5-(4-formylphenyl)-2,6-dimethylpyridin-3-yl)acetic acid] | < 100
Cc1nc(C)c([C@H](OC(C)(C)C)C(=O)O)c(N2CCC(C)(C#N)CC2)c1-c1ccc(C(=O)NCc2ccccc2)cc1 [Example 61, (S)-2-(5-(4-(Benzylcarbamoyl)phenyl)-4-(4-cyano-4-methylpiperidin-1-yl)-2,6-dimethylpyridin-3-yl)-2-(tert-butoxy)acetic acid] | 100 to 1000

Reference: patent US20180170904A1, “PYRIDIN-3-YL ACETIC ACID DERIVATIVES AS INHIBITORS OF HUMAN IMMUNODEFICIENCY VIRUS REPLICATION” (priority 2015, published 2018)
